We go through 13 molecules from BindingDB's records for patent US20230331683 (University of Virginia Patent Foundation, 2023).

The target of this assay is T1, Sphingosine-1-phosphate transporter SPNS2 (Mus musculus, UniProt Q91VM4).
T1 sequence (Q91VM4 whole entry): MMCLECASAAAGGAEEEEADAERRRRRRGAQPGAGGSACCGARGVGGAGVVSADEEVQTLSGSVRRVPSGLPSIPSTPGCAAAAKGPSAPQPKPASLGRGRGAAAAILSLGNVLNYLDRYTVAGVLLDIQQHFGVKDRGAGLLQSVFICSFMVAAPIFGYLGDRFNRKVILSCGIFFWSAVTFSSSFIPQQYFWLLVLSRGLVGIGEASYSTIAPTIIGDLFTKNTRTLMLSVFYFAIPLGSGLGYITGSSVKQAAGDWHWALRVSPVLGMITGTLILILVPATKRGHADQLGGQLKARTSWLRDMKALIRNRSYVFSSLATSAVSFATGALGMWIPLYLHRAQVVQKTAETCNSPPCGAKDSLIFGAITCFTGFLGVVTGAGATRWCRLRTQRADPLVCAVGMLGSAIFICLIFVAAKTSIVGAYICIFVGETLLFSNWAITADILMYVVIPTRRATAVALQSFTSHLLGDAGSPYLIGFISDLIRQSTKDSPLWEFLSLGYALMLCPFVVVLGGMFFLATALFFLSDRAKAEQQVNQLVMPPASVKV
Description: S1P Transporter Assay. The protocol:
Transporter assays are vectorial and therefore require measurement of the transported analyte in different compartments. The S1P transporter SPNS2 only exports S1P, which obviates measuring uptake of S1P into transporter-expressing cells. Thus, transporter activity was determined by quantifying S1P release from whole cells expressing SPNS2. SPNS2 inhibitor potency was assessed using whole cell assays. HeLa cells expressing mouse SPNS2 were used to determine inhibitor potency (IC50). Cells were plated onto 12 well plates and assayed when the cell monolayers became confluent. Cell growth media (RPMI-1640 containing 10% fetal bovine serum) was replaced with 2 mL of serum-free media (RPMI-1640) containing fatty acid free bovine serum albumin (BSA) (0.2 % w/v) and supplemented with 4-deoxypyridoxine (DOP) (1 mM), NaF (2 mM), Na3VO4 (0.2 mM) to inhibit S1P degradation. Test articles (1 × 10-9 - 1 × 10^-4 M) were assayed in duplicate or triplicate. After 18 hours, media was collected, an internal recovery standard (0.005 mL of 5 × 10^-7 M deuterated (d7) S 1P in methanol) was added, the BSA was precipitated with trichloroacetic acid and the bound S1P extracted with methanol. S1P and S1P-d7 were measured by liquid chromatography mass spectrometry.

What is called IC50 is the concentration needed to halve the response being measured. A lower IC50 goes with greater potency in that assay. `CCCCCCCCc1ccc2cc(NC(=O)CCCN)ccc2c1` [US20230331683, Compound 2k]: the IC50 is over 2000 nM.

Take `CCCCCCCCCCc1ccc(NC(=O)[C@@H]2CCN(C(=N)N)C2)cc1` [US20230331683, Compound 4b]: the half-inhibitory concentration (IC50) is under 2000 nM.

Molecule `CCCCCCCCCCc1ccc2nc(CCCN)oc2c1` [US20230331683, Compound 8e] came in with an IC50 of over 2000 nM.

With `CCCCCCCCCCc1ccc2oc(N[C@H]3CCNC3)nc2c1` [US20230331683, Compound 13j], the 50% inhibitory concentration (IC50) is under 2000 nM.

For the molecule `CCCCCCCCCCc1ccc2oc(N[C@@H]3CCNC3)nc2c1` [US20230331683, Compound 13k], the half-maximal inhibitory concentration (IC50) is under 2000 nM.

As for `CCCCCCCCCCc1ccc2nc(N[C@H]3CCNC3)oc2c1` [US20230331683, Compound 13s], the IC50 was under 2000 nM.

On to `CCCCCCCCCCc1ccc2nc(N[C@@H]3CCNC3)oc2c1` [US20230331683, Compound 13t], for which the concentration for half-maximal inhibition (IC50) is under 2000 nM.

Molecule `CCCCCCCCCCc1ccc(C(=O)N[C@H]2CCNC2)cc1` [US20230331683, Compound 26a] registered an IC50 of under 2000 nM.

On to `CCCCCCCCCCc1ccc(C(=O)N[C@@H]2CCNC2)cc1` [US20230331683, Compound 26b], for which the 50% inhibitory concentration (IC50) is under 2000 nM.

`CCCCCCCCCCc1ccc(C(=O)N(C)[C@@H]2CCNC2)cc1` [US20230331683, Compound 32]: the concentration for half-maximal inhibition (IC50) was over 2000 nM.

As to `CCCCCCCCCCc1ccc(C(=S)N[C@@H]2CCNC2)cc1` [US20230331683, Compound 33], the half-maximal inhibitory concentration (IC50) is under 2000 nM.

As to `CCCCCCCCCCc1ccc2oc(NC[C@@H]3CCNC3)nc2c1` [US20230331683, Compound 37], the IC50 was under 2000 nM.

The molecule `CCCCCCCCCCc1ccc2oc(NC[C@H]3CCNC3)nc2c1` [US20230331683, Compound 38] gave an IC50 of under 2000 nM.
